{"source": "patent US20120010229A1", "about": "“THERAPEUTIC REGIMENS FOR HEDGEHOG-ASSOCIATED CANCERS” (priority 2010, published 2012)", "key": {"[1]": {"test_system": "Sonic Hedgehog (SHH) ligand expression in bladder cancer cells", "assay": "Sonic Hedgehog ligand expression in bladder cancer cells after chemotherapy", "type": "cell-based, human", "settings": "over time after chemotherapy", "source_text": "Similar results showing increases in Hh ligand expression in response to chemotherapy have been found in other tumor cells. For example, chemotherapy increases in Sonic Hedgehog (SHH) ligand expression in bladder cancer cells are depicted in FIGS. 4A-4D."}, "[2]": {"target": "Pgp (Homo sapiens, UniProt P08183)", "sequence (P08183 whole entry)": "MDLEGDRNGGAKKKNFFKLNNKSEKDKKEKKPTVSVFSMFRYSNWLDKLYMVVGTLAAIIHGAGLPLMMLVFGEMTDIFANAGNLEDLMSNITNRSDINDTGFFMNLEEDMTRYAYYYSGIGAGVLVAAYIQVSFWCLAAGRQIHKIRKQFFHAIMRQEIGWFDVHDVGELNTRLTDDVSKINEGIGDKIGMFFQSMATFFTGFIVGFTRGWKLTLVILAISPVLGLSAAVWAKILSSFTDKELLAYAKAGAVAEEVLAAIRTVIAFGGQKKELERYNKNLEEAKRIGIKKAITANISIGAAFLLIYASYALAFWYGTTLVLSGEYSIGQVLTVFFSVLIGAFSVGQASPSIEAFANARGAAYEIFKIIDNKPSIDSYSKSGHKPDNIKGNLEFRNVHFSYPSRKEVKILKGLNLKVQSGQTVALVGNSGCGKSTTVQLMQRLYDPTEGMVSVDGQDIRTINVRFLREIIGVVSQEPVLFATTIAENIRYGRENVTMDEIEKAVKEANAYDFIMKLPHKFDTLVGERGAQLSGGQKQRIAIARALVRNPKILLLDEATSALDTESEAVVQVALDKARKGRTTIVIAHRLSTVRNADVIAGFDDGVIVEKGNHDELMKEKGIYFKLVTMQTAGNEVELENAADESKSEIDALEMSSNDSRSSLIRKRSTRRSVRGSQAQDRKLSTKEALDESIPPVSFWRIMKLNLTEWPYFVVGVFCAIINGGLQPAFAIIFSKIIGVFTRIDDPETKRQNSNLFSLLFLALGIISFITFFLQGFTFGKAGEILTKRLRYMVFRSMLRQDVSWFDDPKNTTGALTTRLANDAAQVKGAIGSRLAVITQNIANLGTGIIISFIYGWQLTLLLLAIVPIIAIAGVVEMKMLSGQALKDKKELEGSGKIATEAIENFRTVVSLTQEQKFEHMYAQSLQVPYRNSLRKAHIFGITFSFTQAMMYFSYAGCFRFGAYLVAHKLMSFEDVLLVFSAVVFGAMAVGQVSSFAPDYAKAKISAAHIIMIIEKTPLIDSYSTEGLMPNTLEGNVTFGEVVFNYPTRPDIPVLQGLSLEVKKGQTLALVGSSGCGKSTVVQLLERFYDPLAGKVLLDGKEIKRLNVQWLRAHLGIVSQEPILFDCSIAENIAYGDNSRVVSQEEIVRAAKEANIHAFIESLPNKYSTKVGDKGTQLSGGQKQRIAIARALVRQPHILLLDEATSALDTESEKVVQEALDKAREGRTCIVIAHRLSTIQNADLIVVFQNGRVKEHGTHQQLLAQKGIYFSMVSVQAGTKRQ", "settings": "cited from earlier work"}, "[3]": {"test_system": "hedgehog pathway", "assay": "C3H10T1/2 alkaline phosphatase assay (Shh-dependent osteoblast differentiation)", "type": "cell-based", "settings": "Mus musculus, C3H 10T1/2; sonic hedgehog 250 ng/ml; AP normalized to total protein; read-out: IC50, antagonist of the hedgehog pathway (AP activity)", "source_text": "Cancer cell killing by inhibition of a component of the hedgehog pathway can be ascertained using the following assay. C3H10T1/2 cells differentiate into osteoblasts when contacted with the sonic hedgehog peptide (Shh-N). Upon differentiation, these osteoblasts produce high levels of alkaline phosphatase (AP) which can be measured in an enzymatic assay (Nakamura et al., 1997 BBRC 237: 465). Compounds that block the differentiation of C3H10T1/2 into osteoblasts (a Shh dependent event) can therefore be identified by a reduction in AP production (van der Horst et al., 2003 Bone 33: 899). The assay details are described below. Additional assays to ascertain the activity of hedgehog inhibitors, including IPI-926, are described in US 2009/0181997 by Grayzel et al.; U.S. Ser. No. 61/327,373 and 61/331,365, filed on Apr. 23, 2010 and May 4, 2010, respectively; the entire contents of the aforesaid applications are incorporated herein by reference. […]\nC3H10T1/2 cells were plated in 96 wells with a density of 8×10^3 cells/well. […] After incubating for 30 min at 37° C., the plates were read on an Envision plate reader at 405 nm. Total protein was quantified with a BCA protein assay kit from Pierce according to manufacturer's instructions. […]"}, "[4]": {"test_system": "LuCaP35V (Castration Resistant) primary prostate cancer", "assay": "LuCaP35V castration resistant primary prostate cancer model", "type": "in vivo", "settings": "docetaxel IV Q14D for 28 days, docetaxel+vehicle samples", "source_text": "The effects of IPI-926 were examined following docetaxel chemotherapy in a model of castration resistant prostate cancer. Prostate cancer is known to be a highly desmoplastic cancer, and one that preferentially metastasizes to bone. Sonic hedgehog ligand is expressed in clinical specimens and primary xenograft models. […] FIG. 7 summarizes the effects of IPI-926 in LuCaP35V (Castration Resistant) primary prostate cancer model. Days of docetaxel and IPI-926 administration are indicated by the arrowheads at the indicated days post-implant. The following samples were tested: Vehicle control (administered orally once a day), 40 mg/kg of IPI-926 (administered orally once a day), docetaxel (administered intravenously Q14D for 28 days), or docetaxel (administered intravenously Q14D for 28 days) followed by 40 mg/kg of IPI-926, as shown in FIG. 7. […] Thus, IPI-926 can be useful as maintenance therapy in prostate cancer."}, "[5]": {"test_system": "Ptch1+/-; p53-/- medulloblastoma", "settings": "cited from earlier work"}}, "note": "Counter-ions that a name gives are not always drawn.", "data": [{"compound": "COc1cccc2c1C(=O)c1c(O)c3c(c(O)c1C2=O)C[C@@](O)(C(=O)CO)C[C@@H]3O[C@H]1C[C@H](N)[C@H](O)[C@H](C)O1", "note": "[Doxorubicin]", "values": [{"measurement": "Sonic Hedgehog (SHH) ligand expression", "setting": "[1]", "result": "increase in expression over time"}]}, {"compound": "CS(=O)(=O)c1ccc(C(=O)Nc2ccc(Cl)c(-c3ccccn3)c2)c(Cl)c1", "note": "[GDC-0449]", "values": [{"measurement": "Pgp substrate", "setting": "[2]", "result": "p-glycoprotein (Pgp) substrate"}]}, {"compound": "Nc1ccn([C@@H]2O[C@H](CO)[C@@H](O)C2(F)F)c(=O)n1", "note": "[Gemcitabine]", "values": [{"measurement": "Sonic Hedgehog (SHH) ligand expression", "setting": "[1]", "result": "increase in expression over time"}]}, {"compound": "CC1=C2C[C@H]3[C@@H](CC[C@@H]4C[C@H](NS(C)(=O)=O)CC[C@@]43C)[C@@H]2CC[C@@]2(C1)O[C@@H]1C[C@H](C)CN[C@H]1[C@H]2C", "note": "[IPI-926 (HCl salt)]", "values": [{"measurement": "IC50", "setting": "[3]", "result": "< 20", "unit": "nM"}]}, {"compound": "CC(=O)O[C@@]12CO[C@@H]1C[C@H](O)[C@@]1(C)C(=O)[C@H](O)C3=C(C)[C@@H](OC(=O)[C@H](O)[C@@H](NC(=O)OC(C)(C)C)c4ccccc4)C[C@@](O)([C@@H](OC(=O)c4ccccc4)[C@H]21)C3(C)C", "note": "[docetaxel, reference compound]", "values": [{"measurement": "tumor volume after cessation of docetaxel", "setting": "[4]", "result": "Tumor reoccurrence was detected"}]}, {"compound": "HhAntag", "values": [{"measurement": "survival vs vehicle", "setting": "[5]; 100 mg/kg, enrolled at 5 weeks of age", "result": "survival benefit"}, {"measurement": "tumor mass", "setting": "[5]; 2 weeks of twice daily 20 mg/kg or 100 mg/kg, enrolled at 3 weeks of age", "result": "substantial decrease in tumor mass"}]}]}
